Earlier results in patent US20260283943A1, “STARCHLESS MOLDING PROCESS FOR ORAL PRODUCTS” (NICOVENTURES TRADING LIMITED, priority 2023, published 2026).

How the values were obtained:
[1] = isolated substance

| Compound | Solubility in water | Chemical stability [1] |
| --- | --- | --- |
| C=C(C)[C@@H]1CCC(C)=C[C@H]1c1c(O)cc(CCCCC)cc1O [CBD, cannabidiol, reference compound] | insoluble in an aqueous environment |  |
| COC(=O)/C=C/C(C)=C\C=C\C(C)=C\C=C\C=C(C)\C=C\C=C(C)\C=C\C(=O)O [bixin, (2E,4E,6E,8E,10E,12E,14E,16Z,18E)-20-methoxy-4,8,13,17-tetramethyl-20-oxoicosa-2,4,6,8,10,12,14,16,18-nonaenoic acid] | insoluble in water | chemically unstable when isolated |
